ChEMBL document CHEMBL1201862, “PubChem BioAssay data set” (2004)
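Results reflect a 48-hour exposure of cells in 96-well plates to compound at five concentrations. GI50 marks 50% less growth.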 Calls of active or inactive are those of the source. Cut-off read from the data, not from the text of the source: active = GI50 up to about 1.1 µM and inactive = higher.

Tests used:
Assay in all cases: NCI tumour cell line growth inhibition, 48 h
HOP-62 = test system: HOP-62
T47D = test system: T47D
OVCAR-5 = test system: OVCAR-5
Hs-578T = test system: Hs-578T
DU-145 = test system: DU-145
NCI-H226 = test system: NCI-H226
TK-10 = test system: TK-10
COLO 205 = test system: COLO 205
A498 = test system: A498
CAKI-1 = test system: CAKI-1
UACC-257 = test system: UACC-257
UO-31 = test system: UO-31
HOP-92 = test system: HOP-92
786-0 = test system: 786-0
MDA-MB-231 = test system: MDA-MB-231
SNB-75 = test system: SNB-75
HCT-15 = test system: HCT-15
HCC 2998 = test system: HCC 2998
MDA-MB-435 = test system: MDA-MB-435

Row | SMILES | GI50 (HOP-62) | GI50 (T47D) | GI50 (OVCAR-5) | GI50 (Hs-578T) | GI50 (DU-145) | GI50 (NCI-H226) | GI50 (TK-10) | GI50 (COLO 205) | GI50 (A498) | GI50 (CAKI-1) | GI50 (UACC-257) | GI50 (UO-31) | GI50 (HOP-92) | GI50 (786-0) | GI50 (MDA-MB-231) | GI50 (SNB-75) | GI50 (HCT-15) [µM] | GI50 (HCC 2998) | GI50 (MDA-MB-435)
1 | CN(CCNC(=O)c1n[nH]c2c1ccc1ccccc12)CCNC(=O)c1n[nH]c2c1ccc1ccccc12 | 2.11 µM (inactive) | 2.42 µM (inactive) | 1.81 µM (inactive) | 1.96 µM (inactive) | 2.49 µM (inactive) | 4.32 µM (inactive) | 2.25 µM (inactive) | 1.39 µM (inactive) | 7.28 µM (inactive) | 8.73 µM (inactive) | 24.4 µM (inactive) | 7.35 µM (inactive) | 3.29 µM (inactive) | 1.75 µM (inactive) | 1.94 µM (inactive) | 1.85 µM (inactive) | 13.7 | 1.91 µM (inactive) | 1.79 µM (inactive)
2 | CN(/N=C(\C(=O)O)c1ccccc1)C1=NCCCN1 | > 100 µM (inactive) | > 100 µM (inactive) | > 100 µM (inactive) | > 100 µM (inactive) | > 100 µM (inactive) | > 100 µM (inactive) | > 100 µM (inactive) | > 100 µM (inactive) | > 100 µM (inactive) | > 100 µM (inactive) | > 100 µM (inactive) | > 100 µM (inactive) | 80.9 µM (inactive) | > 100 µM (inactive) | > 100 µM (inactive) | > 100 µM (inactive) | > 100 | > 100 µM (inactive) | > 100 µM (inactive)
3 | N/C(=N\Nc1ccc(C(=O)O)cc1)c1cnccn1 | > 100 µM (inactive) | > 100 µM (inactive) | > 100 µM (inactive) | > 100 µM (inactive) | > 100 µM (inactive) | > 100 µM (inactive) | > 100 µM (inactive) | > 100 µM (inactive) | > 100 µM (inactive) | > 100 µM (inactive) | > 100 µM (inactive) | > 100 µM (inactive) | > 100 µM (inactive) | > 100 µM (inactive) | > 100 µM (inactive) | > 100 µM (inactive) | > 100 | > 100 µM (inactive) | > 100 µM (inactive)
